From publication doi:10.1101/318345v1, “Three enzymes and one substrate; regulation of flux through the glyoxylate shunt in the opportunistic pathogen, Pseudomonas aeruginosa” (biorxiv, 2018) come the findings set out here.

For orientation: Ki means the dissociation constant of the complex between target and ligand, obtained from inhibition or displacement. High values mean a looser hold on the target, low ones a stronger hold on the target.

One assay addresses T1, ICL (Pseudomonas aeruginosa, UniProt Q9I0K4).
T1 construct: gene PA2634; full length, 531 residues, 59 kDa; His6-MBP fusion from E. coli DH5alpha, tag cleaved with Factor Xa; tetramer
T1 sequence (Q9I0K4 1-531): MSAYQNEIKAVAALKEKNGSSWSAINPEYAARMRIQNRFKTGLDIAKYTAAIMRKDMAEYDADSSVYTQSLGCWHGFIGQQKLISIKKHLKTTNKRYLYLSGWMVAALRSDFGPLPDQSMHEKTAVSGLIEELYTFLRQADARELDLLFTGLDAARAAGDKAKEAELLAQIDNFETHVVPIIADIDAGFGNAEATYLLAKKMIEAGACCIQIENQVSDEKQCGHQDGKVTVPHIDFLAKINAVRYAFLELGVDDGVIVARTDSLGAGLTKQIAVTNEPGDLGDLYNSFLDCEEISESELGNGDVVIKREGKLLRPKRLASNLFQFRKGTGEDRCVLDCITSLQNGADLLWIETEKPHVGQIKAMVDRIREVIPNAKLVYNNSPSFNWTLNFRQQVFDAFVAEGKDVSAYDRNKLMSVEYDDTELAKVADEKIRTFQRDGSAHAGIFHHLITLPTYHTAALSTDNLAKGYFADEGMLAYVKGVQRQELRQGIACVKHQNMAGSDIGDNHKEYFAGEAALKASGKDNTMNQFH
Kind of assay: ICL activity, spectrophotometric. The format is biochemical. As to conditions: for Ki': uncompetitive, inhibitor at 1 mM, 37 °C, substrate isocitrate. An excerpt: ICL activity, spectrophotometric on ICL

For assay [1], the target named is T2, IDH (Pseudomonas aeruginosa, UniProt Q9I0L4).
T2 construct: full length, 82 kDa; His6-MBP fusion from E. coli DH5alpha, tag cleaved with Factor Xa
T2 sequence (Q9I0L4 1-741): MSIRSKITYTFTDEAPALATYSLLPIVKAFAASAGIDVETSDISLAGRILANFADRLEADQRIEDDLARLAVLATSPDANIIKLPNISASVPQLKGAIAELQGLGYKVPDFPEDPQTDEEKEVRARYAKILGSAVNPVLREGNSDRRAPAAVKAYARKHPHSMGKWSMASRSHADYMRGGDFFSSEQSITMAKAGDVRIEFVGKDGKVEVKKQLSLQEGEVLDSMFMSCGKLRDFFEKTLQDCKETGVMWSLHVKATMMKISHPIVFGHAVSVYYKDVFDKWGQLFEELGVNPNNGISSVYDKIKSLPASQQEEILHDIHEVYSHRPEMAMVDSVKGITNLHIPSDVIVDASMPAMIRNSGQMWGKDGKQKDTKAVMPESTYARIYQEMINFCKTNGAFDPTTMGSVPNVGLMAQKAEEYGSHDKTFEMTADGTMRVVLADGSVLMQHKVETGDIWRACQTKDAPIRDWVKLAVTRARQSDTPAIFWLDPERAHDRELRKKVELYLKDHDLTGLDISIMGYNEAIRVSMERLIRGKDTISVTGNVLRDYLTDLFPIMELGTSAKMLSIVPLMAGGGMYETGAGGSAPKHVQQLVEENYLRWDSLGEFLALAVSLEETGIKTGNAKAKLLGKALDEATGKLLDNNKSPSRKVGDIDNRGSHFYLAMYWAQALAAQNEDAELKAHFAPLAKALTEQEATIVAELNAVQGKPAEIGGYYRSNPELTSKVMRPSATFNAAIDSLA
Kind of assay: isocitrate dehydrogenase activity, NADPH at […] nm. The note with it: activator at 1 mM, V-type allosteric; 5 mM MgCl2, pH 7.5, 37 °C. In kind it is biochemical.

In a further assay the target is T3, AceKPA (Pseudomonas aeruginosa, UniProt Q9I3W8).
T3 construct: gene aceK; His6-tagged from pET-19m, tag cleaved with TEV protease
T3 sequence (Q9I3W8 1-577): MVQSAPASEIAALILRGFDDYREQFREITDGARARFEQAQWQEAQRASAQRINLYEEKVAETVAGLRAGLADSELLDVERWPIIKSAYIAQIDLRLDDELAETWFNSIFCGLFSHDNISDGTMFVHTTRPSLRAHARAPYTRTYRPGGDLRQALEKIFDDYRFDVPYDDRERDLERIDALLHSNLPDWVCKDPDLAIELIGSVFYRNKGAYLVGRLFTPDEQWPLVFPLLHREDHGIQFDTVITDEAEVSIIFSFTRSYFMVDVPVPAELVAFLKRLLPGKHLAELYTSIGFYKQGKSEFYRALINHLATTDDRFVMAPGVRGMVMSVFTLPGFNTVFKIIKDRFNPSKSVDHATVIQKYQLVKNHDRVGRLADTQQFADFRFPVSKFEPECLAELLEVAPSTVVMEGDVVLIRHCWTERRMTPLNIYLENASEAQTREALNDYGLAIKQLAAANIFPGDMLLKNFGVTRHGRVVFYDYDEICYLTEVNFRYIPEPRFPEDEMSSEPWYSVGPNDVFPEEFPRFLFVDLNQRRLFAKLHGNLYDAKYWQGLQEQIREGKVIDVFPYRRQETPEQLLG
T3 sequence (Q9I0L5 1-418 partner): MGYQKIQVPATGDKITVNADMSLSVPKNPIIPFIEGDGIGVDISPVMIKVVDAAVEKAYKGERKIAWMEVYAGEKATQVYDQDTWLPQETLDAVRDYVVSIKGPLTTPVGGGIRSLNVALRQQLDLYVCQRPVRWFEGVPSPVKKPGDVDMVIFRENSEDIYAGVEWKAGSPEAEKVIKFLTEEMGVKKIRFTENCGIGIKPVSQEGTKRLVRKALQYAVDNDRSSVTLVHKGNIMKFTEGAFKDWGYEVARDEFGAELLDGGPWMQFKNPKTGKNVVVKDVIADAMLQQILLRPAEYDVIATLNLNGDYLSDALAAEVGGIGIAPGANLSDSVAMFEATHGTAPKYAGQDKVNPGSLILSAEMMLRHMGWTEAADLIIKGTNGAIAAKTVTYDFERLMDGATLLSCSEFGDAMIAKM
Kind of assay: AceK phosphatase coupled to ICD reactivation. In kind it is biochemical. The note with it: activator of phosphatase at 5 mM; ICD from P. aeruginosa as protein substrate; 1 mM ATP, 2 mM MgCl2, pH 7.0, 37 °C.

For assay [2], the target named is T2, IDH. The assay is described as follows: X-ray crystal structure, […] Å. In kind it is binding. As to conditions: chain A, with NADP.
A further assay has as its target T4, ICD (Pseudomonas aeruginosa, UniProt Q9I0L5).
T4 construct: full length, 45 kDa; His6-MBP fusion from E. coli DH5alpha, tag cleaved with Factor Xa; dimer
T4 sequence (Q9I0L5 1-418): T3 sequence (Q9I0L5 1-418 partner)
Kind of assay: isocitrate dehydrogenase activity, NADPH at […] nm. In kind it is biochemical.

The mark [3] stands for this setting: text b11 prints a different value (0.6 mM).

On ICL, `CC(C)(COP(=O)(O)OP(=O)(O)OC[C@H]1O[C@@H](n2cnc3c(N)ncnc32)[C@H](O)[C@@H]1OP(=O)(O)O)[C@@H](O)C(=O)NCCC(=O)NCCS` [coenzyme A] had an inhibition constant (Ki) of 3900 µM.
In the case of `O=C(O)CCC(=O)O` [succinate], the “Ki'” value at ICL (setting [3]) turned out to be 900 µM.
`CC(=O)C(=O)O` [pyruvate]: on IDH [1], the “isocitrate dehydrogenase activity, NADPH at 340 nm” value was “pyruvate and oxaloacetate were far more potent regulators”. The compound also displayed a Ki at ICL of 1700 µM.
For the compound `O=C(O)/C=C/C(=O)O` [fumarate], the “AceK phosphatase coupled to ICD reactivation” value on AceKPA is listed as “fumarate was the most potent activator of the phosphatase in AceKPA”.
Consider `O=C(O)CC[N+](=O)[O-]` [nitropropionic acid], for which the “Ki'” value on ICL (setting [3]) was 1000 µM.
For `O=C(O)CC(=O)O` [malonic acid], the “Ki'” value on ICL was determined as 2900 µM.
`O=C(O)C[C@H](O)C(=O)O` [malic acid]: the inhibition constant Ki at ICL worked out at 4400 µM.
On ICL, `O=C(O)CO` [glycolic acid] returned a Ki of 1800 µM.
For `O=C(O)CC(O)(CC(=O)O)C(=O)O` [citrate], at ICL, the Ki was found to be 15800 µM.
Same read-out and setting: as for `O=C(O)CC(=O)C(=O)O` [oxaloacetate], the figure is 1400 µM.
Turning to `O=C(O)CCC(=O)C(=O)O` [α-ketoglutarate], the “X-ray crystal structure, 2.7 Å” value at IDH [2] was “(designated chain A) contained bound α-ketoglutarate and NADP”. This compound yielded a Ki on ICD of 666 µM.
On to `C=C(CC(=O)O)C(=O)O` [itaconic acid], for which, at ICL (text b11 prints a different value (0.5 mM)), the “Ki'” value is 900 µM.
